According to the kinase profiling compilation of Christmann-Franck et al. (2016):

What was measured:
Experiment in all cases: KINOMEscan competition binding
Conditions in all cases: compound 1.0 µM
CDK11B (human) = CDK11B (human) (UniProt P21127)
MAPK8 (human) = MAPK8 (human) (UniProt P45983)
CDK4 CCND1 (human) = CDK4 CCND1 (human) (UniProt P11802+P24385)
CHEK1 (human) = CHEK1 (human) (UniProt O14757)
ICK (human) = ICK (human) (UniProt Q9UPZ9)
[1] = system: EGFR (human), P00533 [G719S]
ACVRL1 (human) = ACVRL1 (human) (UniProt P37023)
HIPK3 (human) = HIPK3 (human) (UniProt Q9H422)
OXSR1 (human) = OXSR1 (human) (UniProt O95747)
[2] = system: FLT3 (human), P36888 [K663Q]
CDK18 (human) = CDK18 (human) (UniProt Q07002)
Sequence of CDK18 (human) (Q07002 whole entry, looked up): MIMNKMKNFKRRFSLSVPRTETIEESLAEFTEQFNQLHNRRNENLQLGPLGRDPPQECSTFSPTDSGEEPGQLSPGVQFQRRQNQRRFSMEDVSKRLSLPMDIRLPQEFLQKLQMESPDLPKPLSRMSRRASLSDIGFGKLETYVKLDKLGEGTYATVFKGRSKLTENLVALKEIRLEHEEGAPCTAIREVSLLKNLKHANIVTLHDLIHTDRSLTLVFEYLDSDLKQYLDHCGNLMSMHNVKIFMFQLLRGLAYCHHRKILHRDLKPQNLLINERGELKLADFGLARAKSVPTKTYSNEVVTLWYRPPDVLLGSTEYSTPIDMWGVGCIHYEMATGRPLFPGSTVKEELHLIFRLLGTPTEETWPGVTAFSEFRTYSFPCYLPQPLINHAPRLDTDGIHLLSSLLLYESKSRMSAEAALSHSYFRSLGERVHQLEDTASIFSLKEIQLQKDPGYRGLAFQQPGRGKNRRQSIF

DCLK3 (human) = DCLK3 (human) (UniProt Q9C098)
CLK4 (human) = CLK4 (human) (UniProt Q9HAZ1)
RPS6KA6 KD2 (human) = RPS6KA6 KD2 (human) (UniProt Q9UK32)
EGFR (human) = EGFR (human) (UniProt P00533)
[3] = system: RET (human), P07949 [M918T]
EPHA2 (human) = EPHA2 (human) (UniProt P29317)
MAP2K6 (human) = MAP2K6 (human) (UniProt P52564)
Sequence of MAP2K6 (human) (P52564 whole entry, looked up): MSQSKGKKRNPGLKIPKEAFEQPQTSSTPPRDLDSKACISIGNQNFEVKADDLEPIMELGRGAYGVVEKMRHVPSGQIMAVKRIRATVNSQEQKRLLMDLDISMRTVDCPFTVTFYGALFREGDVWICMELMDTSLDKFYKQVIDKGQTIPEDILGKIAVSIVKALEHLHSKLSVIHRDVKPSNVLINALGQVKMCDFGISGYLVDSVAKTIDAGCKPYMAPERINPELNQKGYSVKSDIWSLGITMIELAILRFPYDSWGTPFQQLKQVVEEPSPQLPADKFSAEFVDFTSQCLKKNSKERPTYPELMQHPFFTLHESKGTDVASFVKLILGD

SRPK2 (human) = SRPK2 (human) (UniProt P78362)
STK32C (human) = STK32C (human) (UniProt Q86UX6)
Sequence of STK32C (human) (Q86UX6 whole entry, looked up): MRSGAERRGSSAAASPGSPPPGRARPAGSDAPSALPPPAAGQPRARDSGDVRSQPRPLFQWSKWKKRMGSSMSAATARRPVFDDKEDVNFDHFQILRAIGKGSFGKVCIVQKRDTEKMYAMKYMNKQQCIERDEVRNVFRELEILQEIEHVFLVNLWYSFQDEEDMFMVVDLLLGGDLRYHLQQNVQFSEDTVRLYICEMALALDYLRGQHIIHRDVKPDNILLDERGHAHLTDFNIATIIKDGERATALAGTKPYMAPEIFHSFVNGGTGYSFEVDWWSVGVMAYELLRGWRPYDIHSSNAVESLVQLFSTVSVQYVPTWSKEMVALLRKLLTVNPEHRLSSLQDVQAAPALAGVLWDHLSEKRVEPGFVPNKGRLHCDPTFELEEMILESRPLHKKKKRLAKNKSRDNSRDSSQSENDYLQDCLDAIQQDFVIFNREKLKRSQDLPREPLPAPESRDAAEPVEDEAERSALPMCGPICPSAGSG

MAP2K1 (human) = MAP2K1 (human) (UniProt Q02750)
Sequence of MAP2K1 (human) (Q02750 whole entry, looked up): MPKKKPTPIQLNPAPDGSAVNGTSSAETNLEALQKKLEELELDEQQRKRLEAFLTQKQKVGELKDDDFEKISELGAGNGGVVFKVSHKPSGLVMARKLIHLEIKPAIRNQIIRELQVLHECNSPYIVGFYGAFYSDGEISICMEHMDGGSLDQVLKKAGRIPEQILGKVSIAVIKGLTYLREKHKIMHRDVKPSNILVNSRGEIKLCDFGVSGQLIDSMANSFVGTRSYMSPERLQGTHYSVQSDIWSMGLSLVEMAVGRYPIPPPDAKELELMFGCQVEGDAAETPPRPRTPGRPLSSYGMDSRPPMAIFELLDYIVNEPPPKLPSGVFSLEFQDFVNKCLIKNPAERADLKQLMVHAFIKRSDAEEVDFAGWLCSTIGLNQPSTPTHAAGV

[4] = system: PIK3CA (human), P42336 [H1047Y]
Sequence of PIK3CA (human), P42336 [H1047Y] (P42336 whole entry H1047Y, looked up): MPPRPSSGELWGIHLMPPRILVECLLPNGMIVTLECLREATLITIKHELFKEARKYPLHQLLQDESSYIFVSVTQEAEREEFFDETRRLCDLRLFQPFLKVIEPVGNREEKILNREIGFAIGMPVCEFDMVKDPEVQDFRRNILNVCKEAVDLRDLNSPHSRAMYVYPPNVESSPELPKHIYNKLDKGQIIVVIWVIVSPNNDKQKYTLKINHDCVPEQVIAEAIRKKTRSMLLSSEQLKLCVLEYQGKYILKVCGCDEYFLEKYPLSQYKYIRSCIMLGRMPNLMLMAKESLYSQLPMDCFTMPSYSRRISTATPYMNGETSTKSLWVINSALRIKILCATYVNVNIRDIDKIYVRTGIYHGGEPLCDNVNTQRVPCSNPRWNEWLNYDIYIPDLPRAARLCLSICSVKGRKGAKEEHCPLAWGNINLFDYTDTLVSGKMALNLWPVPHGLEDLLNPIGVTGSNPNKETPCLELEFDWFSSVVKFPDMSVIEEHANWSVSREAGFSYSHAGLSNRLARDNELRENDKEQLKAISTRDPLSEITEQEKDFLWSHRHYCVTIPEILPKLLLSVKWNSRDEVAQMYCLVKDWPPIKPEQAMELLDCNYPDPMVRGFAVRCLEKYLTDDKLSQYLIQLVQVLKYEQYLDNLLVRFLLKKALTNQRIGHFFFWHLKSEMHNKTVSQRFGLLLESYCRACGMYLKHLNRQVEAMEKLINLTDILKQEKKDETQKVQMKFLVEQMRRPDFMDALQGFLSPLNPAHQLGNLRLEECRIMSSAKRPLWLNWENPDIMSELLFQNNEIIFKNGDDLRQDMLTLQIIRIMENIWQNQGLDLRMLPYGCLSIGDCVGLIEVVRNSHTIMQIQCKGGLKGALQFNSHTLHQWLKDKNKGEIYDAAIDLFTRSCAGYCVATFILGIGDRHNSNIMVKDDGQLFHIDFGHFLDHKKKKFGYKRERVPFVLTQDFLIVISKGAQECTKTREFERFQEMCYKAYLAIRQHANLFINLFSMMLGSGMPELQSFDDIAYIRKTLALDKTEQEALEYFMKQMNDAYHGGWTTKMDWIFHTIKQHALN

SRPK3 (human) = SRPK3 (human) (UniProt Q9UPE1)
Sequence of SRPK3 (human) (Q9UPE1 whole entry, looked up): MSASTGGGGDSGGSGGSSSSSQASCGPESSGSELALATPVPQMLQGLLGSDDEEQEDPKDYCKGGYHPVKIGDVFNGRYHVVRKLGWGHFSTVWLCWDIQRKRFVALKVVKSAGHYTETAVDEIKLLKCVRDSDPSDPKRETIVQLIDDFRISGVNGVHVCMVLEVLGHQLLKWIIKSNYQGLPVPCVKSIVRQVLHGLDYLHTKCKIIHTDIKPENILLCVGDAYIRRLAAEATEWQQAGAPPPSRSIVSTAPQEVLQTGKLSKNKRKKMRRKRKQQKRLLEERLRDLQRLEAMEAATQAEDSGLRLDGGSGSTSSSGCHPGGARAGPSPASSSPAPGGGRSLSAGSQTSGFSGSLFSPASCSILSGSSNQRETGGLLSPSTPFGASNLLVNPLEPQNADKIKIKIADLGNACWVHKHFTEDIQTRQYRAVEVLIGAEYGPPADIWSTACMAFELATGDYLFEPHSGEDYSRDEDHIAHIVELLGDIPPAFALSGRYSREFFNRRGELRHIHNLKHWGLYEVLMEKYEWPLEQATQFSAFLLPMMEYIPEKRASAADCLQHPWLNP

MUSK (human) = MUSK (human) (UniProt O15146)
EPHA7 (human) = EPHA7 (human) (UniProt Q15375)
Sequence of EPHA7 (human) (Q15375 whole entry, looked up): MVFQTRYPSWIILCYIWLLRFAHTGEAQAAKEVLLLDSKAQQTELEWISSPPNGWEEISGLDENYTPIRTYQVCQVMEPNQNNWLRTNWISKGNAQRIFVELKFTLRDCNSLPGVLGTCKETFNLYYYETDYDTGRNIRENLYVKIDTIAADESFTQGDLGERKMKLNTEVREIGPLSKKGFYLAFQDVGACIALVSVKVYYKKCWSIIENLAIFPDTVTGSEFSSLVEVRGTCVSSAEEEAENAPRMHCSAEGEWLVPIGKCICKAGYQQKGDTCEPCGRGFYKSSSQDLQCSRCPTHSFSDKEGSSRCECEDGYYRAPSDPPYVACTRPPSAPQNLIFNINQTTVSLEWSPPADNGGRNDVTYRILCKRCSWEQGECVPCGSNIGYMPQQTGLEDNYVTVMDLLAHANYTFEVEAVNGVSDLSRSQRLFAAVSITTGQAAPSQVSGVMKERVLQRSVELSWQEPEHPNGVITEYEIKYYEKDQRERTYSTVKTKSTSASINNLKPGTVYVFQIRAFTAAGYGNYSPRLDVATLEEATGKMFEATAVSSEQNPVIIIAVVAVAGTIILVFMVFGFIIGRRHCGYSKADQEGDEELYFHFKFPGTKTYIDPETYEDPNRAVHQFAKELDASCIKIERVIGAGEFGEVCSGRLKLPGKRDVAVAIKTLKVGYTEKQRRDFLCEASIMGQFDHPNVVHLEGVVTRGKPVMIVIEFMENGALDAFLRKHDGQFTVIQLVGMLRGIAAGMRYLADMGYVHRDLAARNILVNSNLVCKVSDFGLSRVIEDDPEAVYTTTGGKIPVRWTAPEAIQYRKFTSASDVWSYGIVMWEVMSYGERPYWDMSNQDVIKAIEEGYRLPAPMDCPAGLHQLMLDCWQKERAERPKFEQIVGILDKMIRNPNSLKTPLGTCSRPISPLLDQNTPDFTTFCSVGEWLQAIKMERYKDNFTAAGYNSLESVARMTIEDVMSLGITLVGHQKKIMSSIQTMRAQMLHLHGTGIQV

CaMK1 (human) = CaMK1 (human) (UniProt Q14012)
MAP3K1 (human) = MAP3K1 (human) (UniProt Q13233)
ACVR1 (human) = ACVR1 (human) (UniProt Q04771)
Sequence of ACVR1 (human) (Q04771 whole entry, looked up): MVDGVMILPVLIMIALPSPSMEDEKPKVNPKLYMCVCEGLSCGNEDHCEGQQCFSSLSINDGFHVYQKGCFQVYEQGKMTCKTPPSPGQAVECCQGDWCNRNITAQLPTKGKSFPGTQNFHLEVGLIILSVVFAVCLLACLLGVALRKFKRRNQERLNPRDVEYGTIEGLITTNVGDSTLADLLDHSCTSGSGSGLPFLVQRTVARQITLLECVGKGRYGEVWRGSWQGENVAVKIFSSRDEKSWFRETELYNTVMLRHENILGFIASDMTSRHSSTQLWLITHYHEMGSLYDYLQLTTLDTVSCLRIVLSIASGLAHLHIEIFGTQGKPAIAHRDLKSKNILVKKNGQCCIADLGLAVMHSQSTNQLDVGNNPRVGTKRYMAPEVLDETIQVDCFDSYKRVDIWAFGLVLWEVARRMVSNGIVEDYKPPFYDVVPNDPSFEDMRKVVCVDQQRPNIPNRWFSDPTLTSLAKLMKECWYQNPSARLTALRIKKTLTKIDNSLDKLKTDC

[5] = system: FLT3 (human), P36888 [ITD]
CHEK2 (human) = CHEK2 (human) (UniProt O96017)
MAP3K3 (human) = MAP3K3 (human) (UniProt Q99759)
[6] = system: PIK3CA (human), P42336 [H1047L]
Sequence of PIK3CA (human), P42336 [H1047L] (P42336 whole entry H1047L, looked up): as the sequence (P42336 whole entry H1047Y, looked up) above, with Y1047L counted along it

SRC (human) = SRC (human) (UniProt P12931)
AURKA (human) = AURKA (human) (UniProt O14965)
ROCK1 (human) = ROCK1 (human) (UniProt Q13464)
[7] = system: EGFR (human), P00533 [746-750 del]
HIPK1 (human) = HIPK1 (human) (UniProt Q86Z02)
[8] = target: TYK2 JH1 catalytic (human) (UniProt P29597)
GRK4 (human) = GRK4 (human) (UniProt P32298)

**Q.** Which results are given for `CNc1nc(Nc2ccc(C(=O)N3CCOCC3)cc2OC)ncc1Cl`?
**A.** residual activity (CDK11B (human)): 100%; kinase still bound, per cent of control (MAPK8 (human)): 44%; residual activity (CDK4 CCND1 (human)): 100%; kinase still bound, per cent of control (CHEK1 (human)): 100%; kinase still bound, per cent of control (ICK (human)): 100%; kinase still bound, per cent of control [1]: 100%; kinase still bound, per cent of control (ACVRL1 (human)): 100%; kinase still bound, per cent of control (HIPK3 (human)): 47%; kinase still bound, per cent of control (OXSR1 (human)): 100%; kinase still bound, per cent of control [2]: 53%; residual activity (CDK18 (human)): 98%; kinase still bound, per cent of control (DCLK3 (human)): 100%; kinase still bound, per cent of control (CLK4 (human)): 100%; kinase still bound, per cent of control (RPS6KA6 KD2 (human)): 89%; kinase still bound, per cent of control (EGFR (human)): 100%; kinase still bound, per cent of control [3]: 100%; kinase still bound, per cent of control (EPHA2 (human)): 100%; kinase still bound, per cent of control (MAP2K6 (human)): 100%; kinase still bound, per cent of control (SRPK2 (human)): 84%; kinase still bound, per cent of control (STK32C (human)): 100%; kinase still bound, per cent of control (MAP2K1 (human)): 89%; kinase still bound, per cent of control [4]: 85%; kinase still bound, per cent of control (SRPK3 (human)): 64%; kinase still bound, per cent of control (MUSK (human)): 100%; kinase still bound, per cent of control (EPHA7 (human)): 100%; kinase still bound, per cent of control (CaMK1 (human)): 96%; kinase still bound, per cent of control (MAP3K1 (human)): 65%; kinase still bound, per cent of control (ACVR1 (human)): 95%; kinase still bound, per cent of control [5]: 87%; kinase still bound, per cent of control (CHEK2 (human)): 26%; kinase still bound, per cent of control (MAP3K3 (human)): 56%; kinase still bound, per cent of control [6]: 100%; kinase still bound, per cent of control (SRC (human)): 100%; kinase still bound, per cent of control (AURKA (human)): 96%; kinase still bound, per cent of control (ROCK1 (human)): 100%; kinase still bound, per cent of control [7]: 88%; kinase still bound, per cent of control (HIPK1 (human)): 79%; kinase still bound, per cent of control [8]: 73%; kinase still bound, per cent of control (GRK4 (human)): 75%
